Experiments:
U937 cells = experiment: Inhibition of TNF-α-induced necroptosis of U937 cells (CCK-8 assay); format: cell-based, human; details: Homo sapiens, U-937, TNF-α 20 ng/mL + BV6 2 µM + Z-VAD-FMK 20 µM, 18 h
From the text: Example 56: Inhibition of TNF-α-Induced Necroptosis of U937 Cells by Compounds
• 1. Experimental reagents: RPMI-1640 culture medium, fetal bovine serum, penicillin-streptomycin, TNF-α (MCE, HY-P7058), BV6 (MCE, HY-16701), Z-VAD-FMK (MCE, HY-16658B), and CCK-8 (Dalian Meilun Biotech Co., Ltd., MA0218). • 2. Experimental instruments: medical low-temperature freezer (Thermo Fisher scientific, 902-ULTS), electrically heated thermostatic water bath (Shanghai Bluepard Instruments Co., Ltd., CD-420), low-speed centrifuge (ANHUI USTC Zonkia Scientific Instruments Co., Ltd, SC-3616), carbon dioxide incubator (Shanghai Bluepard Instruments Co., Ltd., BPN-150CH(UV)), inverted microscope (Olympus, CKX53), multi-functional microplate reader (Thermo Tecan, SPARK), class-II biosafety cabinet (AIRTECH, BSC-1304IIA2), and desktop cell counter (Thermo Fisher Scientific, Countess II). • 3. Cell culturing: U937 cells (human histiocytic lymphoma cells) were cultured in an RPMI-1640 culture solution containing 10% fetal bovine serum and 1% penicillin-streptomycin solution in a 5% CO2 incubator at 37 °C and a saturated humidity. The cell culture flask was vertically placed in the incubator. A T25 culture flask was used as an example, the culture solution in the flask was 6-8 mL, and culture medium changes and cell passaging were performed 3-4 times a week. • 4. […] The culture medium was taken out from the freezer and transferred to the water bath for pre-heating. An appropriate amount of culture medium was then taken for use. • (2) The cell suspension was transferred to a 15 mL sterile centrifuge tube and centrifuged at 850 rpm for 4 min to collect U937 cells. • (3) The supernatant was carefully discarded, and an appropriate amount of culture medium was added. The mixture was gently pipetted using a pipette to homogenize the cells and thus prepare a single-cell suspension, and the cells were counted. • (4) The cells were diluted to 4 × 10^5/mL and seeded into a 96-well plate at 90 µL/well, such that the cell density in the 96-well plate was 3.6 × 10 ^4 cells/well. The cells were incubated in a 5% CO 2 incubator at 37 °C and a saturated humidity for 6 h, followed by the addition of compounds. • 4.2 Dilution and addition of compounds: • (1) TNF-α was dissolved in PBS to obtain a 100 µg/mL stock solution and aliquoted; Z-VAD-FMK was dissolved in DMSO to obtain a 10 mM stock solution and aliquoted; BV6 was dissolved in DMSO to obtain a 10 mM stock solution and aliquoted; GSK2982772 was dissolved in DMSO to obtain a 10 mM stock solution and aliquoted. One aliquot of each stock solution was stored at -20 °C for immediate use, while the remaining aliquots were stored at - 80 °C and used within their shelf life. • (2) RPMI-1640 culture medium containing TNF-α, BV6, and Z-VAD-FMK was prepared (5 µL/per well), such that the final concentrations of TNF-α, BV6, and Z-VAD-FMK were 20 ng/mL, 2 µM, and 20 µM, respectively. • (3) Each target compound was three-fold diluted with a culture medium to 8 concentration gradients, with each concentration set in duplicate (5 µL/well). The final concentrations of each target compound were 1000.00/333.33/111.11/37.04/12.35/4.12/1.37/0.46 nM. • (4) The 96-well plate containing 90 µL of cell suspension was taken out from an incubator, and a positive control group, test compound groups, and a DMSO (5‰) control group were set. 5 µL of RPMI-1640 culture solution containing TNF-α, BV6, and Z-VAD-FMK and 5 µL of culture solution containing the test compound were added to the positive control group and the test compound groups. After compound addition, the mixtures were cultured for 18 h, followed by the CCK-8 assay. • (5) The 96-well plate was taken out, and the CCK-8 reagent was carefully added at 10 µL/well. The mixtures were incubated at 37 °C for 2-4 h, and the absorbance value was measured at a wavelength of 450 nm. • 5. Evaluation of inhibitory activity of compounds on TNF-α-induced necroptosis of U937 [formula] […]

HT-29 cells = experiment: Inhibition of TNF-α-induced necroptosis of HT-29 cells (SRB method); format: cell-based, human; details: Homo sapiens, HT-29, TNF-α 20 ng/mL + BV6 2 µM + Z-VAD-FMK 20 µM, 18 h
From the text: Example 57: Inhibition of TNF-α-Induced Necroptosis of HT-29 Cells by Compounds
• 1. Experimental reagents: McCOY's 5A culture medium, fetal bovine serum, penicillin-streptomycin, trypsin, PBS, TNF-α (MCE, HY-P7058), BV6 (MCE, HY-16701), Z-VAD-FMK (MCE, HY-16658B), SRB kit (Shanghai BestBio Biotechnology Co., Ltd., BB-4208-500T). • 2. Experimental instruments: medical low-temperature freezer (Thermo Fisher scientific, 902-ULTS), electrically heated thermostatic water bath (Shanghai Bluepard Instruments Co., Ltd., CD-420), low-speed centrifuge (ANHUI USTC Zonkia Scientific Instruments Co., Ltd, SC-3616), carbon dioxide incubator (Shanghai Bluepard Instruments Co., Ltd., BPN-150CH(UV)), inverted microscope (Olympus, CKX53), multi-functional microplate reader (Thermo Tecan, SPARK), class-II biosafety cabinet (AIRTECH, BSC-1304IIA2), and desktop cell counter (Thermo Fisher Scientific, Countess II). • 3. Cell culturing: HT-29 cells (human colon cancer cells) were cultured in a McCOY's 5A culture solution containing 10% fetal bovine serum and 1% penicillin-streptomycin solution in a 5% CO 2 at 37 °C and a saturated humidity, and culture medium changes and cell passaging were performed 3-4 times a week. • 4. […] The culture medium, trypsin, etc., were taken out from the freezer and transferred to the water bath for pre-heating. An appropriate amount of these substances was then taken for use. • (2) The old culture medium in the flask was aspirated using a sterile pipette and discarded, and the cells were washed 3 times with PBS. 1 mL of trypsin (25 cm^2 cell culture flask) was added into the flask, and the flask was gently shaken to allow the trypsin to cover all the cell surfaces. Digestion was performed in an incubator at 37 °C. After 2 min of digestion, the flask was placed under a microscope for observation. […] The mixture was gently pipetted using a pipette to homogenize the cells and thus prepare a single-cell suspension, and the cells were counted. • (5) The cells were diluted to 3 × 10^5/mL and seeded into a 96-well plate at 100 µL/well, such that there were 3 × 10^4 cells per well in the 96-well plate. The cells were incubated in a 5% CO2 incubator at 37 °C and a saturated humidity for 24 h, followed by the addition of compounds. • 4.2 Dilution and addition of compounds: • (1) TNF-α was dissolved in PBS to obtain a 100 µg/mL stock solution and aliquoted; Z-VAD-FMK was dissolved in DMSO to obtain a 10 mM stock solution and aliquoted; BV6 was dissolved in DMSO to obtain a 10 mM stock solution and aliquoted; GSK2982772 was dissolved in DMSO to obtain a 10 mM stock solution and aliquoted. One aliquot of each stock solution was stored at -20 °C for immediate use, while the remaining aliquots were stored at - 80 °C and used within their shelf life. • (2) McCOY's 5A culture solution containing TNF-α, BV6, and Z-VAD-FMK was prepared. For the positive control group and the test compound groups, the McCOY's 5A culture solution was added at 90 µL/well, and 10 µL of the culture medium containing the test compound was also added, thus making the final concentrations of TNF-α, BV6, and Z-VAD-FMK be 20 ng/mL, 2 µM, and 20 µM, respectively. For the DMSO (5‰) control group, 90 µL of the McCOY's 5A complete culture solution was added, and then 10 µL of DMSO was added, thus making the final concentration 5‰. • (3) Each target compound was three-fold diluted with a culture medium to 8 concentration gradients, with each concentration set in duplicate (10 µL/well). The final concentrations of each target compound were 1000.00/333.33/111.11/37.04/12.35/4.12/1.37/0.46 nM. • (4) The 96-well plate cultured for 24 h was taken out from the incubator, and the culture medium in the 96-well plate was carefully aspirated and discarded. A positive control group, test compound groups, and a DMSO (5‰) control group were set, and 10 µL of the corresponding compound was added to each group. […]

SMILES: O=C(NC1CCc2cc(C#CC3CC3)cc3c2N(CC3)C1=O)c1nnc(Cc2ccccc2)[nH]1 (stereo not drawn) [Compound I-1, 5-benzyl-N-(9-(cyclopropylethynyl)-4-oxo-1,2,3,4,6,7-hexahydroazepino[3,2,1-hi]indol-3-yl)-4H-1,2,4-triazole-3-carboxamide]
- EC50 (U937 cells): > 200 nM
- EC50 (HT-29 cells): 100 to 200 nM

SMILES: O=C(NC1CCc2cc(C#Cc3ccccn3)cc3c2N(CC3)C1=O)c1nnc(Cc2ccccc2)[nH]1 (stereo not drawn) [Compound I-2, 5-benzyl-N-(4-oxo-9-(pyridin-2-ylethynyl)-1,2,3,4,6,7-hexahydroazepino[3,2,1-hi]indol-3-yl)-4H-1,2,4-triazole-3-carboxamide]
- EC50 (U937 cells): 100 to 200 nM
- EC50 (HT-29 cells): 10 to 100 nM

SMILES: O=C(NC1CCc2cc(C#Cc3cccnc3)cc3c2N(CC3)C1=O)c1nnc(Cc2ccccc2)[nH]1 (stereo not drawn) [Compound I-3, 5-benzyl-N-(4-oxo-9-(pyridin-3-ylethynyl)-1,2,3,4,6,7-hexahydroazepino[3,2,1-hi]indol-3-yl)-4H-1,2,4-triazole-3-carboxamide]
- EC50 (U937 cells): 100 to 200 nM
- EC50 (HT-29 cells): 10 to 100 nM

SMILES: O=C(NC1CCc2cc(C#Cc3ccncc3)cc3c2N(CC3)C1=O)c1nnc(Cc2ccccc2)[nH]1 (stereo not drawn) [Compound I-4, 5-benzyl-N-(4-oxo-9-(pyridin-4-ylethynyl)-1,2,3,4,6,7-hexahydroazepino[3,2,1-hi]indol-3-yl)-4H-1,2,4-triazole-3-carboxamide]
- EC50 (U937 cells): 100 to 200 nM
- EC50 (HT-29 cells): 100 to 200 nM

SMILES: Cn1cc(C#Cc2cc3c4c(c2)CCN4C(=O)C(NC(=O)c2nnc(Cc4ccccc4)[nH]2)CC3)cn1 (stereo not drawn) [Compound I-5, 5-benzyl-N-(9-((1-methyl-1H-pyrazol-4-yl)ethynyl)-4-oxo-1,2,3,4,6,7-hexahydroazepino[3,2,1-hi]indol-3-yl)-4H-1,2,4-triazole-3-carboxamide]
- EC50 (U937 cells): 10 to 100 nM
- EC50 (HT-29 cells): 100 to 200 nM

SMILES: O=C(NC1CCc2cc(C#CC3CCOCC3)cc3c2N(CC3)C1=O)c1nnc(Cc2ccccc2)[nH]1 (stereo not drawn) [Compound I-6, 5-benzyl-N-(4-oxo-9-((tetrahydro-2H-pyran-4-yl)ethynyl)-1,2,3,4,6,7-hexahydroazepino[3,2,1-hi]indol-3-yl)-4H-1,2,4-triazole-3-carboxamide]
- EC50 (U937 cells): 10 to 100 nM
- EC50 (HT-29 cells): 10 to 100 nM

SMILES: CC(C)(O)C#Cc1cc2c3c(c1)CCN3C(=O)C(NC(=O)c1nnc(Cc3ccccc3)[nH]1)CC2 (stereo not drawn) [Compound I-7, 5-benzyl-N-(9-(3-hydroxy-3-methylbut-1-yn-1-yl)-4-oxo-1,2,3,4,6,7-hexahydroazepino[3,2,1-hi]indol-3-yl)-4H-1,2,4-triazole-3-carboxamide]
- EC50 (U937 cells): 100 to 200 nM
- EC50 (HT-29 cells): > 200 nM

SMILES: O=C(NC1CCc2cc(C#Cc3ccncc3)cc3c2N(CC3)C1=O)c1nnc(Cc2ccc(F)cc2)[nH]1 (stereo not drawn) [Compound I-8, 5-(4-fluorobenzyl)-N-(4-oxo-9-(pyridin-4-ylethynyl)-1,2,3,4,6,7-hexahydroazepino[3,2,1-hi]indol-3-yl)-4H-1,2,4-triazole-3-carboxamide]
- EC50 (U937 cells): > 200 nM
- EC50 (HT-29 cells): > 200 nM

SMILES: O=C(NC1CCc2cc(C#Cc3ccncc3)cc3c2N(CC3)C1=O)c1nnc(Cc2ccc(Cl)cc2)[nH]1 (stereo not drawn) [Compound I-9, 5-(4-chlorobenzyl)-N-(4-oxo-9-(pyridin-4-ylethynyl)-1,2,3,4,6,7-hexahydroazepino[3,2,1-hi]indol-3-yl)-4H-1,2,4-triazole-3-carboxamide]
- EC50 (U937 cells): > 200 nM
- EC50 (HT-29 cells): > 200 nM

SMILES: O=C(NC1CCc2cc(C#Cc3ccncc3)cc3c2N(CC3)C1=O)c1nnc(Cc2ccccc2Cl)[nH]1 (stereo not drawn) [Compound I-10, 5-(2-chlorobenzyl)-N-(4-oxo-9-(pyridin-4-ylethynyl)-1,2,3,4,6,7-hexahydroazepino[3,2,1-hi]indol-3-yl)-4H-1,2,4-triazole-3-carboxamide]
- EC50 (U937 cells): 100 to 200 nM
- EC50 (HT-29 cells): > 200 nM

SMILES: O=C(NC1CCc2cc(C#Cc3ccncc3)cc3c2N(CC3)C1=O)c1nnc(Cc2ccccc2F)[nH]1 (stereo not drawn) [Compound I-11, 5-(2-fluorobenzyl)-N-(4-oxo-9-(pyridin-4-ylethynyl)-1,2,3,4,6,7-hexahydroazepino[3,2,1-hi]indol-3-yl)-4H-1,2,4-triazole-3-carboxamide]
- EC50 (U937 cells): 100 to 200 nM
- EC50 (HT-29 cells): 100 to 200 nM

SMILES: O=C(NC1CCc2cc(C#Cc3ccncc3)cc3c2N(CC3)C1=O)c1nnc(Cc2c(F)cccc2F)[nH]1 (stereo not drawn) [Compound I-12, 5-(2,6-difluorobenzyl)-N-(4-oxo-9-(pyridin-4-ylethynyl)-1,2,3,4,6,7-hexahydroazepino[3,2,1-hi]indol-3-yl)-4H-1,2,4-triazole-3-carboxamide]
- EC50 (U937 cells): 10 to 100 nM
- EC50 (HT-29 cells): 10 to 100 nM

Reference: patent publication EP4772510A2, “BENZAZEPINONE COMPOUND AND USE THEREOF” (HANGZHOU BIO-SINCERITY PHARMA-TECHCO., LTD., priority 2023, dated 2025)
